Counter-ions that a name gives are not always drawn.
Key:
[1] = Polymorphic stability following grinding and tablet punching; assay type: physicochemical
[2] = Compressibility for dosage form preparation (e.g. tablets); assay type: physicochemical

C[C@H](CSC(=O)c1ccccc1)C(=O)N1C[C@@H](Sc2ccccc2)C[C@H]1C(=O)O [(4S)-1-[(2S)-3-(benzoylthio)-2-methylpropionyl]-4-(phenylthio)-L-proline calcium salt]
stability (changes in polymorphic form) [1]: no changes in polymorphic form | compressibility [2]: excellent compressibility
